Like-named read-outs stand apart in the source and are kept apart here.
Assays:
Format in all cases: cell-based
AU565 = experiment: cells
Experimental: (§1) From the stock concentration, 8 serial dilutions (1:5) were made with DMSO.
(§2) Day −1: Plate cells in 100 μl volume in 96 well plate. • Note: Cell number seeded adjusted for growth characteristics, so that at time of assay for proliferation following three-day drug treatment, the control wells should still be in log-growth phase (sub-confluent). Day 0: Drug added to plate for treatment. • A time 0 plate was processed for the proliferation assay to establish a baseline reading at time when drug was added.
(§3) LBNL are following the protocols set up by the NCI/NIH DTP Human Tumor Cell Line Screen Process (http://dtp.nci.nih.gov/branches/btb/ivclsp.html) and summarized below.
(§4) [(Ti−Tz)/(C−Tz)]×100 for concentrations for which Ti>/=Tz
(§5) [(Ti−Tz)/(C−Tz)]×100=50, • which is the drug concentration resulting in a 50% reduction in the net growth in control cells during the drug incubation. TGI: Total growth inhibition is calculated from
(§6) Ti=Tz. • The drug concentration resulting in total growth inhibition (down to the ‘time 0’ baseline). LC50: Net loss of cell growth at 50% is calculated from
(§7) [(Ti−Tz)/Tz]×100=−50. • The concentration of drug resulting in a 50% reduction in the cell number at the end of the drug treatment as compared to that at the beginning (time 0) indicating a net loss of cells following treatment.
(§8) Values are calculated for each of these three parameters if the level of activity is reached; however, if the effect is not reached or is exceeded, the value for that parameter is expressed as greater or less than the maximum or minimum concentration tested.

MCF10F = experiment: cells
Experimental: as §1, §2, §3, §4, §5, §6, §7, §8

HCC1187 = experiment: cells
Experimental: as §1, §2, §3, §4, §5, §6, §7, §8

MX-1 = experiment: cells
Experimental: as §1, §2, §3, §4, §5, §6, §7, §8

SUM159PT = experiment: cells
Experimental: as §1, §2, §3, §4, §5, §6, §7, §8

HCC1395 = experiment: cells
Experimental: as §1, §2, §3, §4, §5, §6, §7, §8

HCC1954 = experiment: cells
Experimental: as §1, §2, §3, §4, §5, §6, §7, §8

in vitro = conditions: human
Experimental: as §1, §2, §3, §4, §5, §6, §7, §8

HCC38 = experiment: cells
Experimental: as §1, §2, §3, §4, §5, §6, §7, §8

MDAMB436L = experiment: cells
Experimental: as §1, §2, §3, §4, §5, §6, §7, §8

ZR75B = experiment: cells
Experimental: as §1, §2, §3, §4, §5, §6, §7, §8

BT474 = experiment: cells
Experimental: as §1, §2, §3, §4, §5, §6, §7, §8

HCC1500 = experiment: cells
Experimental: as §1, §2, §3, §4, §5, §6, §7, §8

HCC1937 = experiment: cells
Experimental: as §1, §2, §3, §4, §5, §6, §7, §8

184B5 = experiment: in vitro
Experimental: as §1, §2, §3, §4, §5, §6, §7, §8

BT483 = experiment: cells
Experimental: as §1, §2, §3, §4, §5, §6, §7, §8

MDAMB134 = experiment: cells
Experimental: as §1, §2, §3, §4, §5, §6, §7, §8

MCF12A = experiment: cells
Experimental: as §1, §2, §3, §4, §5, §6, §7, §8

MDAMB453 = experiment: cells
Experimental: as §1, §2, §3, §4, §5, §6, §7, §8

BT20 = experiment: cells
Experimental: as §1, §2, §3, §4, §5, §6, §7, §8

600MPE = experiment: cells
Experimental: as §1, §2, §3, §4, §5, §6, §7, §8

[1] = Homo sapiens, 50% net loss of cells vs time 0, read-out: LC50 (the source's name)
[2] = Homo sapiens, 72 h, three-day drug treatment, read-out: gIC50

Q: What does the source list for COc1ncc(-c2ccc3nccc(-c4ccnnc4)c3c2)cc1NS(=O)(=O)c1ccc(F)cc1F [Compound B, 2,4-difluoro-N-{2-(methyloxy)-5-[4-(4-pyridazinyl)-6-quinolinyl]-3-pyridinyl}benzenesulfonamide]?
A: TGI (AU565; AU565, total growth inhibition): 6700.0 nM; IC50 (AU565; Homo sapiens, 72 h, AU565, three-day drug treatment, read-out: gIC50): 7.2 nM; CC50 (AU565; Homo sapiens, AU565, 50% net loss of cells vs time 0, read-out: LC50 (the source's name)): > 33000 nM; IC50 (MCF10F; Homo sapiens, MCF-10F, 72 h, three-day drug treatment, read-out: gIC50): 2.4 nM; TGI (MCF10F; total growth inhibition): 14.3 nM; TGI (HCC1187; HCC1187, total growth inhibition): 35.5 nM; IC50 (HCC1187; Homo sapiens, 72 h, HCC1187, three-day drug treatment, read-out: gIC50): 4.9 nM; CC50 (HCC1187; Homo sapiens, HCC1187, 50% net loss of cells vs time 0, read-out: LC50 (the source's name)): 118 nM; IC50 (MX-1; Homo sapiens, MX1, 72 h, MX-1, three-day drug treatment, read-out: gIC50): 5.2 nM; CC50 (MX-1; Homo sapiens, MX1, MX-1, 50% net loss of cells vs time 0, read-out: LC50 (the source's name)): 251 nM; TGI (MX-1; MX-1, total growth inhibition): 20.4 nM; CC50 (SUM159PT; Homo sapiens, SUM-159-PT, 50% net loss of cells vs time 0, read-out: LC50 (the source's name)): > 33000 nM; IC50 (SUM159PT; Homo sapiens, SUM-159-PT, 72 h, three-day drug treatment, read-out: gIC50): 10.4 nM; TGI (SUM159PT; total growth inhibition): 940.6 nM; TGI (HCC1395; HCC1395, total growth inhibition): 358.6 nM; IC50 (HCC1395; Homo sapiens, 72 h, HCC1395, three-day drug treatment, read-out: gIC50): 50.3 nM; CC50 (HCC1395; Homo sapiens, HCC1395, 50% net loss of cells vs time 0, read-out: LC50 (the source's name)): 26700 nM; TGI (HCC1954; HCC1954, total growth inhibition): 32.3 nM; IC50 (HCC1954; Homo sapiens, 72 h, HCC1954, three-day drug treatment, read-out: gIC50): 14.3 nM; CC50 (HCC1954; Homo sapiens, HCC1954, 50% net loss of cells vs time 0, read-out: LC50 (the source's name)): 54.2 nM; CC50 at 3 days (in vitro; 184A1 breast epithelium cells (HER2−, PIK3CA NA), 184A1, 50% net loss of cells vs time 0, read-out: LC50): 26700 nM; CC50 at 3 days (in vitro; 184B5 breast epithelium cells (HER2−, PIK3CA NA), 184B5, 50% net loss of cells vs time 0, read-out: LC50): > 33000 nM; CC50 at 3 days (in vitro; MCF10A cells (breast epithelium; HER2−; PIK3CA NA), 50% net loss of cells vs time 0, read-out: LC50): 6700 nM; CC50 at 3 days (in vitro; MCF10F cells (breast epithelium; HER2−; PIK3CA NA), 50% net loss of cells vs time 0, read-out: LC50): 98.7 nM; CC50 at 3 days (in vitro; MCF12A cells (breast epithelium; HER2−; PIK3CA wild type), 50% net loss of cells vs time 0, read-out: LC50): 2760 nM; TGI (HCC38; HCC38, total growth inhibition): 158.5 nM; IC50 (HCC38; Homo sapiens, 72 h, HCC38, three-day drug treatment, read-out: gIC50): 55 nM; CC50 (HCC38; Homo sapiens, HCC38, 50% net loss of cells vs time 0, read-out: LC50 (the source's name)): 355 nM; CC50 (MDAMB436L; [1]): > 33000 nM; IC50 (MDAMB436L; [2]): 13.2 nM; TGI (MDAMB436L; total growth inhibition): >33000.0 nM; CC50 (ZR75B; Homo sapiens, ZR-75B, 50% net loss of cells vs time 0, read-out: LC50 (the source's name)): > 33000 nM; IC50 (ZR75B; Homo sapiens, ZR-75B, 72 h, three-day drug treatment, read-out: gIC50): 4.5 nM; TGI (ZR75B; total growth inhibition): 43.4 nM; TGI (BT474; BT474, total growth inhibition): 20.1 nM; IC50 (BT474; Homo sapiens, BT-474, 72 h, BT474, three-day drug treatment, read-out: gIC50): 4.8 nM; CC50 (BT474; Homo sapiens, BT-474, BT474, 50% net loss of cells vs time 0, read-out: LC50 (the source's name)): 119 nM; TGI (HCC1500; HCC1500, total growth inhibition): 371.5 nM; IC50 (HCC1500; Homo sapiens, 72 h, HCC1500, three-day drug treatment, read-out: gIC50): 75.9 nM; CC50 (HCC1500; Homo sapiens, HCC1500, 50% net loss of cells vs time 0, read-out: LC50 (the source's name)): 6500 nM; TGI (HCC1937; HCC1937, total growth inhibition): 321.7 nM; IC50 (HCC1937; Homo sapiens, 72 h, HCC1937, three-day drug treatment, read-out: gIC50): 25.4 nM; CC50 (HCC1937; Homo sapiens, HCC1937, 50% net loss of cells vs time 0, read-out: LC50 (the source's name)): ≥ 33000 nM; TGI (184B5; 184B5, total growth inhibition): 46.3 nM; IC50 (184B5; Homo sapiens, 72 h, 184B5, three-day drug treatment, read-out: gIC50): 5.6 nM; TGI (BT483; BT483, total growth inhibition): 8.5 nM; IC50 (BT483; Homo sapiens, BT-483, 72 h, BT483, three-day drug treatment, read-out: gIC50): 1.5 nM; CC50 (BT483; Homo sapiens, BT-483, BT483, 50% net loss of cells vs time 0, read-out: LC50 (the source's name)): 1170 nM; IC50 (MDAMB134; Homo sapiens, 72 h, MDAMB134, three-day drug treatment, read-out: gIC50): 13.2 nM; CC50 (MDAMB134; Homo sapiens, MDAMB134, 50% net loss of cells vs time 0, read-out: LC50 (the source's name)): 224 nM; TGI (MDAMB134; MDAMB134, total growth inhibition): 60.3 nM; IC50 (MCF12A; Homo sapiens, MCF-12A, 72 h, three-day drug treatment, read-out: gIC50): 7.4 nM; TGI (MCF12A; total growth inhibition): 178.5 nM; IC50 (MDAMB453; Homo sapiens, MDA-MB-453, 72 h, MDAMB453, three-day drug treatment, read-out: gIC50): 7.8 nM; CC50 (MDAMB453; Homo sapiens, MDA-MB-453, MDAMB453, 50% net loss of cells vs time 0, read-out: LC50 (the source's name)): 162 nM; TGI (MDAMB453; MDAMB453, total growth inhibition): 54.9 nM; TGI (BT20; BT20, total growth inhibition): 95.5 nM; IC50 (BT20; Homo sapiens, BT-20, 72 h, BT20, three-day drug treatment, read-out: gIC50): 14.8 nM; CC50 (BT20; Homo sapiens, BT-20, BT20, 50% net loss of cells vs time 0, read-out: LC50 (the source's name)): 468 nM; CC50 (600MPE; [1]): 875 nM; IC50 (600MPE; [2]): 6.8 nM; TGI (600MPE; total growth inhibition): 33.5 nM
